# Data reported in ChEMBL document CHEMBL1201862, “PubChem BioAssay data set” (2004).
# The source made the active and inactive calls.
# Legend:
# [1] = viability of uninfected HEp-2 cells – cell-based, HTS, cytotoxicity control for RSV inhibitor project, dose response (AID 2410); assay type: functional; conditions: human respiratory syncytial virus
# [2] = target: T1, Corticotropin-releasing factor receptor 2/Corticotropin-releasing factor-binding protein (Homo sapiens, UniProt P24387+Q13324); test: activators of CRF receptor 2 with binding protein – uHTS hits, confirmation (AID 602473); assay type: functional; conditions: read-out: EC50_Mean
# T1 sequence (Q13324 whole entry): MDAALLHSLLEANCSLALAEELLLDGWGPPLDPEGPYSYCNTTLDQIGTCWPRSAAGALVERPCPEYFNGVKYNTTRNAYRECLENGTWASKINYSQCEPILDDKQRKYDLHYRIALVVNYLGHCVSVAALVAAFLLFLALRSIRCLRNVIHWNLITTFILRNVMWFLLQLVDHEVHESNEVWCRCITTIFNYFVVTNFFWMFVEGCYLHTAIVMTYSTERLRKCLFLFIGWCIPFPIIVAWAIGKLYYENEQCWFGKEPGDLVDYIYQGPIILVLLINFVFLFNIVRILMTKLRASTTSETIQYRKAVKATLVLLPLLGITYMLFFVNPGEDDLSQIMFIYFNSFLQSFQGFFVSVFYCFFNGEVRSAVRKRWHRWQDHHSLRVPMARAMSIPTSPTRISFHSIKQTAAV
# T1 sequence (P24387 whole entry): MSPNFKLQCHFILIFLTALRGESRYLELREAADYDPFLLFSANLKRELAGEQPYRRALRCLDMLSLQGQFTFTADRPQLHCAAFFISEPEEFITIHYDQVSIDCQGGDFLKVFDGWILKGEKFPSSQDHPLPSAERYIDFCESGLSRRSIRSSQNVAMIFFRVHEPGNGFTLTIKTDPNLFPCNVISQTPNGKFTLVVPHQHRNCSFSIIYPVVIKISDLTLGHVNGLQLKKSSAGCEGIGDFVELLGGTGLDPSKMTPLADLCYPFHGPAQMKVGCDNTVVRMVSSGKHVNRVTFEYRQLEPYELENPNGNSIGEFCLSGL
# [3] = target: T2, Heat shock factor protein 1 (Mus musculus, UniProt P38532); test: enhancement of HSF1-driven luciferase signal – cell-based, NIH3T3, luminescence, dose retest, confirmation (AID 435004); assay type: functional;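 note: stress induced by proteasome inhibitor MG132 added 30 min after compound; luciferase reporter driven by HSF1 response element in NIH3T3 cells; actives raise luminescence as potentiators of the MG132 stress response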
# T2 sequence (P38532 whole entry): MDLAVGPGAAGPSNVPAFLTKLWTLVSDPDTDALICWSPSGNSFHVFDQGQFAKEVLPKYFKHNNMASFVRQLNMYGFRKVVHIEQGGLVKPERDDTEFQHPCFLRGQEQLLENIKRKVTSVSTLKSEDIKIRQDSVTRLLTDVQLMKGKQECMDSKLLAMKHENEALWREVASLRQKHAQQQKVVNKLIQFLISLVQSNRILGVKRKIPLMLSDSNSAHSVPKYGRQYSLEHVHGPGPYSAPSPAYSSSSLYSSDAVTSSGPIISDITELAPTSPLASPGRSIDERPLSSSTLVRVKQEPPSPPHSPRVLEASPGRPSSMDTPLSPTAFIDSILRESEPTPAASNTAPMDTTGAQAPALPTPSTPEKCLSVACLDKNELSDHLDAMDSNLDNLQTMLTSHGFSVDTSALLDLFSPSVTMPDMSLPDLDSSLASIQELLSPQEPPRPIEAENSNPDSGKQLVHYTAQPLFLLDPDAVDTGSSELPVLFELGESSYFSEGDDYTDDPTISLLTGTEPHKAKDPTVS
# [4] = target: T3, Replicative DNA helicase DnaB (Mycobacterium tuberculosis, UniProt P9WMR3); test: DnaB intein splicing inhibitors, dose response, biochemical, cell-free fluorescence (AID 449749); assay type: functional
# T3 sequence (P9WMR3 whole entry): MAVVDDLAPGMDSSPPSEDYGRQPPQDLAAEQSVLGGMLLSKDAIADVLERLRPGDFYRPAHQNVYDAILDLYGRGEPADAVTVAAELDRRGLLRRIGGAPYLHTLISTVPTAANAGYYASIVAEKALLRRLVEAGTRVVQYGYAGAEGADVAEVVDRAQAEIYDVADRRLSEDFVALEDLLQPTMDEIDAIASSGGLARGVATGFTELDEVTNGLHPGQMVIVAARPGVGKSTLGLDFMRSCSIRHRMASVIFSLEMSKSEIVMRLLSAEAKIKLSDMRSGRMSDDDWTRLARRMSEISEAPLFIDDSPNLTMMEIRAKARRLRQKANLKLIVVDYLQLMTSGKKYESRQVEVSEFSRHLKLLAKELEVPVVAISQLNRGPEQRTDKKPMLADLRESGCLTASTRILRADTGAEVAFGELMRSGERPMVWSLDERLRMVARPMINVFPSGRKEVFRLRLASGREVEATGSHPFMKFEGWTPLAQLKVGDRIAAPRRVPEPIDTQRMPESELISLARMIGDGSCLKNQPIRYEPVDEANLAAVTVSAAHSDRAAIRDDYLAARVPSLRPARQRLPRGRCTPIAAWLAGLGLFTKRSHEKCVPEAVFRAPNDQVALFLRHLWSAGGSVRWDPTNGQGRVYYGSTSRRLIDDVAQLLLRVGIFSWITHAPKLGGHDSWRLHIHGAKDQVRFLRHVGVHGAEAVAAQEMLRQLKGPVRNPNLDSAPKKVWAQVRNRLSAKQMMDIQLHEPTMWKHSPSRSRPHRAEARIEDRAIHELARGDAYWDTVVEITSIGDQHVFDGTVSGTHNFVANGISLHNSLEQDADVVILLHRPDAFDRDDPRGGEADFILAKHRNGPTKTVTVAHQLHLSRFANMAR
# [5] = target: T4, Protein RecA (Mycobacterium tuberculosis, UniProt P9WHJ3); test: Fluorescence Cell-Free Homogeneous Dose Retest to Identify Inhibitors of RecA-Intein Splicing Activity. [Related pubchem assays (depositor defined):AID2097, AID2223, AID489010, AID492950]; assay type: functional
# T4 sequence (P9WHJ3 whole entry): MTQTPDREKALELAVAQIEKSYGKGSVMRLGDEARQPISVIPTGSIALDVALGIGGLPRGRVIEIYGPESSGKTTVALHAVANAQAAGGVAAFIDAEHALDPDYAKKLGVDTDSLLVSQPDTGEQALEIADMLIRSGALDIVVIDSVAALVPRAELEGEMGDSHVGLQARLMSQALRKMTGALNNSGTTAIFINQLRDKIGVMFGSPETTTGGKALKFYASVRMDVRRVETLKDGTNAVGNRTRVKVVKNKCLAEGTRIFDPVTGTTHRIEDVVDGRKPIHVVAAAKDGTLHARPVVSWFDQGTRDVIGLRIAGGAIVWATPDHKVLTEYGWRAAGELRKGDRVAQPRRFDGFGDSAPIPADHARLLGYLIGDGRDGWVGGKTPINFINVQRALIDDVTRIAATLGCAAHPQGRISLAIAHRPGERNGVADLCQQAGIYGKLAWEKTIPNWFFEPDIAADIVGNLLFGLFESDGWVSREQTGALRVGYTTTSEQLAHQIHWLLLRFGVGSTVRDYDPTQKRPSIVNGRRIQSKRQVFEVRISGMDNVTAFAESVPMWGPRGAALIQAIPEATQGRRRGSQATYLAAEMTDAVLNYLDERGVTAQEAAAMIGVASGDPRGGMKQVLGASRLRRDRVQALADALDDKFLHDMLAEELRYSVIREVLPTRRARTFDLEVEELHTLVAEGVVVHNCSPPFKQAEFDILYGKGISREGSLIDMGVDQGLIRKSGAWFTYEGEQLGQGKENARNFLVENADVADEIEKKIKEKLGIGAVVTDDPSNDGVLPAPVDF
# [6] = tested on: INS1; test: INS-1E survival protection against cytokine death – cell-based, luminescence, retest, dose response (AID 449756); assay type: functional; conditions: Rattus norvegicus;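 note: cell death triggered by IL-1 beta plus TNF-alpha plus IFN-gamma mixture; protective hits raise ATP signal compared with cytokine alone wells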
# [7] = microbe, parasite or virus in culture; assay type: functional; conditions: Mycobacterium tuberculosis
# [8] = luciferase reporter signal suppression in cells – H4 neuroglioma cells, luminescence, dose response (AID 1990); assay type: functional, cell-based
# [9] = Luminescence Cell-Based Dose Response HTS to Identify Inhibitors of 5'UTR Stem-Loop Driven Prion Protein mRNA Translation in H4 Neuroglioblastoma Cells. [Related pubchem assays: 1827 (Project Summary), 1813 (Primary HTS)]; assay type: functional
# [10] = alpha-synuclein stem-loop luciferase translation blockers – H4 neuroglioma cells, luminescence, confirmation (AID 1988); assay type: functional, cell-based
# [11] = Trypanosoma cruzi growth suppression in host cells – NIH3T3 host cells, beta-gal luminescence, confirmation (AID 2044); assay type: functional, cell-based;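 note: intracellular parasites grown in NIH/3T3 mouse fibroblasts as host cells; luminescent beta-galactosidase reporter signal from transgenic T. cruzi replicating inside host cells; inhibitors lower the luminescence signal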
# [12] = NIH3T3 cell viability loss – ATP luminescence, mouse fibroblasts, counter-screen, dose response (AID 2010); assay type: functional, cell-based;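 note: cells exposed to compound for about 90 hours before reading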
# [13] = Luminescence Cell-Based Dose Retest to Confirm Inhibitors of Cancer Stem Cells. [Related pubchem assays (depositor defined):AID2717, AID2721]; assay type: functional; conditions: Homo sapiens
# [14] = target: T5, Rac GTPase-activating protein 1 (Homo sapiens, UniProt Q9H0H5); test: blockers of MgcRacGAP-driven Rac1 GTP hydrolysis – biochemical, ADP Hunter fluorescence, primary and confirmatory, confirmation (AID 624330); assay type: functional
# T5 sequence (Q9H0H5 whole entry): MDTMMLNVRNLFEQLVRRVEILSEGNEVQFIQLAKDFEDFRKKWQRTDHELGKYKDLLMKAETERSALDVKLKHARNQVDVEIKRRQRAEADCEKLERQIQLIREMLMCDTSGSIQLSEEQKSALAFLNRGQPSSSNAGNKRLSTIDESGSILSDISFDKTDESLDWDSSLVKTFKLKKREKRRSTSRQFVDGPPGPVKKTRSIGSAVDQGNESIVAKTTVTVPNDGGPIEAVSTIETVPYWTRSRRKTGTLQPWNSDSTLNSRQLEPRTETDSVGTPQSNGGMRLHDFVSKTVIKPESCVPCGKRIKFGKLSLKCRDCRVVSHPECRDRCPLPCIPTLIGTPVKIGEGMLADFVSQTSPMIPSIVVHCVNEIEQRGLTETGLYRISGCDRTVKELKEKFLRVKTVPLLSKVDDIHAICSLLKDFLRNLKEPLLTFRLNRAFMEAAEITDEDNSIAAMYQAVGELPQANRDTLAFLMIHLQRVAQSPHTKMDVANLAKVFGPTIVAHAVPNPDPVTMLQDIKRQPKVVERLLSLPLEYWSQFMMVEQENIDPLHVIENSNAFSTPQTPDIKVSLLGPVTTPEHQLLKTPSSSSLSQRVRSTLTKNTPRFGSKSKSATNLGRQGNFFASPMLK
# [15] = target: Luciferin 4-monooxygenase (Photinus pyralis, UniProt P08659); test: inhibition of purified Photinus pyralis luciferase – biochemical, luminescence, dose response (AID 1891)
# [16] = Luminescence Cell-Based Dose Confirmation HTS to Identify Inhibitors of Platelet Dense Granule Release. [Related pubchem assays: 1663 (Primary HTS), 1678 (Summary of Project)]; assay type: functional
# Sequence of Luciferin 4-monooxygenase (P08659 whole entry): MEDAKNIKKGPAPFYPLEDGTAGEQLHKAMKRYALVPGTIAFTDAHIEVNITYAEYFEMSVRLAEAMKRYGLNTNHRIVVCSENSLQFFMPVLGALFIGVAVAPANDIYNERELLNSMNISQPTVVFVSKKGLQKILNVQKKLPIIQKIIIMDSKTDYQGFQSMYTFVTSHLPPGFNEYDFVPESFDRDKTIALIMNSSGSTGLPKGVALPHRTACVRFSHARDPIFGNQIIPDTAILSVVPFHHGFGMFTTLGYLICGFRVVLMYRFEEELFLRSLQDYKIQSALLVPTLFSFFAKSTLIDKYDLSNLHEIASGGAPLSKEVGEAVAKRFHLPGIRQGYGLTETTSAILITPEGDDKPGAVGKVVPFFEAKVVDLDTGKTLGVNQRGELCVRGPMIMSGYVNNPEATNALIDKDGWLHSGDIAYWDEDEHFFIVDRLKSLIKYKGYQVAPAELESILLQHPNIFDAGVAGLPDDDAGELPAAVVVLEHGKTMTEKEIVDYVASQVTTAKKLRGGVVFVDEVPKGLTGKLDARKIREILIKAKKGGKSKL
smiles,measurement,setting,value
CCOc1ccc(-n2c(SCc3cc(=O)oc4cc(C)c(C(C)C)cc34)nnc2-c2cccnc2)cc1,CC50,[1],17.5 µM (active)
COc1ccc(-c2oc3cccnc3c2C#CCO)cc1,CC50,[1],> 50 µM (active)
O=S(=O)(c1ccccc1)N1CCCC(c2nc(O)c3nnn(Cc4ccccc4Br)c3n2)C1 (stereo not given),CC50,[1],18.2 µM (active)
O=C1C=C(c2ccccc2)C(c2ccccc2)C1O (stereo not given),EC50,[2],> 53 µM (inactive)
O=C(c1ccco1)c1coc2c1cc(O)c1ccccc12,EC50,[3],65.4 µM (active)
same,AC50,[4],16.2 µM (active)
same,EC50,[5],48.7 µM (active)
same,AC50,[6],27 µM (active)
O=C1/C(=C/c2ccc(O)cc2)SC(=S)N1Cc1cccnc1,EC50,[2],12.9 µM (active)
COC(=O)c1ccc(CSc2nc3ccccc3[nH]2)o1,CC50,[1],> 50 µM (active)
Cc1[nH]c2ccccc2c1N=Nc1ccccc1F,CC50,[1],18 µM (active)
CC1(C)CC(=O)C2=C(C1)N=C(Nc1nc3ccccc3o1)NC2c1ccccn1 (stereo not given),CC50,[7],> 40 µM (active)
CCc1ccccc1N(CC)C(=O)C1CCN(c2ncnc3c2nc2n3CCCCC2)CC1,CC50,[1],17.2 µM (active)
Cc1ccc(-n2nc(C)c3c(C)c(CCC(=O)Nc4ccc(CN5CCCC5)cc4)c(C)nc32)cc1,EC50,[8],9.39 µM (active)
same,EC50,[9],> 120 µM (not active)
same,EC50,[10],8.22 µM (active)
same,EC50,[11],1.76 µM (active)
same,CC50,[7],8.7 µM (active)
same,EC50,[12],> 60 µM (not active)
same,AC50,[13],5.7 µM (active)
CN(C)c1nc(NCc2ccccc2)nc(N/N=C/c2ccc3c(c2)OCO3)n1,CC50,[7],> 40 µM (active)
CN=C(S)NNC(=O)c1ccc(N(C)C)cc1,CC50,[1],> 50 µM (active)
Oc1c(/C=N/Cc2ccc(F)cc2)[nH]c2ccc(Br)c(Cl)c12,CC50,[1],29.1 µM (active)
same,AC50,[4],61.8 µM (active)
same,EC50,[5],2.44 µM (active)
CCn1nc(C)c(C(=O)Nc2cc(Oc3cc(C)cc(C)c3)cc([N+](=O)[O-])c2)c1C,CC50,[7],22.7 µM (active)
Cc1ccccc1C(=O)NC(=S)Nc1sc2c(c1C#N)CCC(C)C2 (stereo not given),CC50,[1],36.8 µM (active)
Cn1c(=O)c(C(=O)COC(=O)c2cc(C(F)(F)F)nc3c(C(F)(F)F)cccc23)c(N)n(CC2CC2)c1=O,CC50,[7],> 40 µM (active)
CCN(CC)c1ccc(/N=C/c2ccccc2[N+](=O)[O-])cc1,AC50,[6],33.2 µM (active)
same,IC50,[14],30.5 µM (active)
O=C(Oc1ccccc1-c1nnco1)c1ccc(Cl)cc1,CC50,[7],21.8 µM (active)
c1coc(CNc2c3c(nc4ncnn24)CCC3)c1,CC50,[1],40.5 µM (active)
CC1=[N+]([O-])C(C)(C)N(O)C1(C)C,EC50,[15],> 112 µM (not active)
same,EC50,[16],> 112 µM (not active)
same,EC50,[2],> 53 µM (inactive)
